# Measurements: patent publication US20080220084A1, “COMBINATION THERAPY FOR ALLEVIATING PAIN-RELATED CONDITIONS” (Pfantastic Medical Research Institute, LLC, priority 2007, published 2008)
# Test system: chronic low back pain
# Assay: Treatment of low back pain (herniated disc, lumbar spinal canal stenosis), single-subject case
# Type: in vivo, human
# Conditions: person, before the composition
# Source text: The acute pain was managed by a combination of pain killer medication and a series of physical therapies at that time. However, chronic low back pain remained ever since. […] The patient was also subjected to a series of disc decompression treatments (20 treatment sessions).
# No medication and other treatment were applied prior to taking the composition of the present invention. Two pills (0.5 g each) of the composition of the present invention were taken by the patient every morning and at night (twice a day). Each pill was composed of Rhizoma Gastrodiae Elatae (˜30-60 mg), dry powder of Manitis (˜70-105 mg), dry powder of Agkistrodon seu Bungarus (˜25-40 mg), roots of Radix Aconiti Lateralis Preparata (˜50-90 mg) and Radix Paeoniae Lactiflorae (˜50-90 mg), Herba Asari cum Radice (˜25-40 mg), Cornu cervi Parvum (˜70-100 mg), Eupolyphaga seu Opisthoplatia (˜25-45 mg), and Sulindac (30 mg). Total daily dosage of Sulindac was 120 mg, which is lower than recommended dosage (400 mg/day). Sulindac is a NSAID for the treatment of arthritis, but not proposed for the treatment of sciatica nerve pain.
smiles,measurement,value
Cc1ccc(-c2cc(C(F)(F)F)nn2-c2ccc(S(N)(=O)=O)cc2)cc1 [Celebrex],pain reduction by earlier prescribed medication,not effective in reducing the pain
